This note sets out measurements from ChEMBL document CHEMBL4325850 (Bioorg Med Chem Lett, 2018).

Active and inactive are the calls of the source. No cut-off for these calls is given here.

Assay [1] addresses Dipeptidyl peptidase 8 (Homo sapiens, UniProt Q6V1X1). Put plainly: Inhibition of human recombinant DPP-8 using H-Gly-Pro-AMC as substrate after 10 mins by fluorescence assay.
The target of assay [2] is Dipeptidyl peptidase 9 (Homo sapiens, UniProt Q86TI2). The experiment in a line: Inhibition of human recombinant DPP-9 using H-Gly-Pro-AMC as substrate after 10 mins by fluorescence assay.
The nature of assay [3]: Inhibition of ADP-induced platelet aggregation in human platelet-rich plasma at 0.1 mM preincubated for 5 mins followed by ADP-stimulation and measured within 5 mins by Born's turbidimetric analysis relative to control. Conditions: read-out: INH.
Assay [4] can be described thus: Induction of NO production in pH 7.4 PBS incubated for 1 to 14 hrs under dark conditions and measured every 1 hr for 2 hrs and then every 2 hrs for remaining time by Griess assay. The format is functional. (Griess reagent forms a coloured azo dye with nitrite.)

In general, IC50 refers to the concentration that gives 50% inhibition.

Dipeptidyl peptidase 9, sequence (Q86TI2 whole entry): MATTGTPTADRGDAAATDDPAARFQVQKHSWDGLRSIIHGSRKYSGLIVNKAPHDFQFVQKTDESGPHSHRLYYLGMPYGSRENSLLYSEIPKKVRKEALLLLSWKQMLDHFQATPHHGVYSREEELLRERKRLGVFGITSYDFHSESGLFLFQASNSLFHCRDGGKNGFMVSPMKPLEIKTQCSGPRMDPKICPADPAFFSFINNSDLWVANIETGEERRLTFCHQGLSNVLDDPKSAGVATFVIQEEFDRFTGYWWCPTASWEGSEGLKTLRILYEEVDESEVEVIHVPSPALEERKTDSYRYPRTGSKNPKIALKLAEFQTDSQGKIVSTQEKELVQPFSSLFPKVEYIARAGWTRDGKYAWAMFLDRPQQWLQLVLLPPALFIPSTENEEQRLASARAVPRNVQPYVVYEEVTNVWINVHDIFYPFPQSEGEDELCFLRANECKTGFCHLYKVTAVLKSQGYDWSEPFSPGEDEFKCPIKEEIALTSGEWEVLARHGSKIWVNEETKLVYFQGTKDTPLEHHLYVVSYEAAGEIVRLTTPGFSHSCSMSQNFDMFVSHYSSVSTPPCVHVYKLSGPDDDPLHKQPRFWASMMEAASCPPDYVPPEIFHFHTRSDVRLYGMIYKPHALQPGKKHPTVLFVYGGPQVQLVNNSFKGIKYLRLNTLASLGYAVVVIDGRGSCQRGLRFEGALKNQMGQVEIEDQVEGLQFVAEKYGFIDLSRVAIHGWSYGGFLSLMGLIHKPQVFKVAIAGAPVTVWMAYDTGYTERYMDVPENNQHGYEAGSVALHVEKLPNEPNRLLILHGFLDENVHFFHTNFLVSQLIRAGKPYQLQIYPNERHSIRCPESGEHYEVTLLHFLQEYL
Dipeptidyl peptidase 8, sequence (Q6V1X1 whole entry): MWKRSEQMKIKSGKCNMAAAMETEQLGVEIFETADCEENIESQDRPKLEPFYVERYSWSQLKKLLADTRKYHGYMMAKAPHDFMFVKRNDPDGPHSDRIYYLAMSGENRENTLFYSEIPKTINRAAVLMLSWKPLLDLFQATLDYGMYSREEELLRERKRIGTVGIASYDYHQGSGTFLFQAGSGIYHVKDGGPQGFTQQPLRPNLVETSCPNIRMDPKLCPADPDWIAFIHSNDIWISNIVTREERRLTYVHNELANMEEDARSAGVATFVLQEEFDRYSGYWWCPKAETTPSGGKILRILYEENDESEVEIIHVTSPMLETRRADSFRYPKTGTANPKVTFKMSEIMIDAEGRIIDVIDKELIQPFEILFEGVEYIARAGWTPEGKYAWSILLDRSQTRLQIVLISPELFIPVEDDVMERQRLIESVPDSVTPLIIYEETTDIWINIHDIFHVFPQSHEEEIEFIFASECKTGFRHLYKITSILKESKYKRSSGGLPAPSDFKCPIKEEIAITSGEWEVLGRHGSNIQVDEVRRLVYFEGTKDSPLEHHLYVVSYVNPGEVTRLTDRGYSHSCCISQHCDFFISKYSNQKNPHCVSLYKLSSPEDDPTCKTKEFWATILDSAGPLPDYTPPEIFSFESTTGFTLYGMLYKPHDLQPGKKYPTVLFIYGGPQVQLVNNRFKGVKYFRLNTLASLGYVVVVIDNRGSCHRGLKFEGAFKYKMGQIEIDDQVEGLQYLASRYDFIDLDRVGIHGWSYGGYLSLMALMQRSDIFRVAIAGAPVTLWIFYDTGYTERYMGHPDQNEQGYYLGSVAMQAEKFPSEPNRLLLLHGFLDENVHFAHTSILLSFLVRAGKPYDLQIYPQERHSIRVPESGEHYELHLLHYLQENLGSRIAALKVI

On to `O=C(CCCO)N[C@@H](CC(=O)N1CCn2c(nnc2C(F)(F)F)C1)Cc1cc(F)c(F)cc1F`, for which the IC50 in assay [1] and in assay [2] was more than 100 µM in each case. Also, in assay [3], the inhibition at 100 µM came out at 3.41%.
For the compound `O=C(CCCO[N+](=O)[O-])N[C@@H](CC(=O)N1CCn2c(nnc2C(F)(F)F)C1)Cc1cc(F)c(F)cc1F`, the IC50 in assay [1] and in assay [2] was more than 100 µM throughout. Moreover, the outcome in assay [4] was Active. For the same compound, in assay [3], the inhibition at 100 µM worked out at 27.6%.
For `O=C(CO)N[C@@H](CC(=O)N1CCn2c(nnc2C(F)(F)F)C1)Cc1cc(F)c(F)cc1F`, the IC50 in assay [1] and in assay [2] was more than 100 µM throughout. In assay [3], the inhibition at 100 µM turned out to be 3.22%.
Consider `O=C(CCCCO)N[C@@H](CC(=O)N1CCn2c(nnc2C(F)(F)F)C1)Cc1cc(F)c(F)cc1F`, for which the IC50 in assay [1] and in assay [2] was more than 100 µM in each case. Besides, the inhibition at 100 µM in assay [3] is 2.02%.
Consider `O=C(CO[N+](=O)[O-])N[C@@H](CC(=O)N1CCn2c(nnc2C(F)(F)F)C1)Cc1cc(F)c(F)cc1F`, for which the IC50 in assay [1] and in assay [2] was more than 100 µM in each case. Also, the result in assay [4] was Active. Also, the inhibition at 100 µM in assay [3] came out at 22.4%.
With `O=C(CCCCCO)N[C@@H](CC(=O)N1CCn2c(nnc2C(F)(F)F)C1)Cc1cc(F)c(F)cc1F`, the IC50 in assay [1] and in assay [2] was more than 100 µM throughout. Also, the inhibition at 100 µM in assay [3] is 3.63%.
Take `CC(=O)Oc1ccccc1C(=O)O` [ASPIRIN]: in assay [3], the inhibition at 100 µM was determined as 26%.
As to `N[C@@H](CC(=O)N1CCn2c(nnc2C(F)(F)F)C1)Cc1cc(F)c(F)cc1F` [SITAGLIPTIN], the inhibition at 100 µM in assay [3] is 4.24%.
For `O=C(CCCCCO[N+](=O)[O-])N[C@@H](CC(=O)N1CCn2c(nnc2C(F)(F)F)C1)Cc1cc(F)c(F)cc1F`, the IC50 in assay [1] and in assay [2] was more than 100 µM each time. Also, the result in assay [4] was Active. For the same compound, the inhibition at 100 µM in assay [3] amounted to 40.2%.
As to `O=C(CCCCO[N+](=O)[O-])N[C@@H](CC(=O)N1CCn2c(nnc2C(F)(F)F)C1)Cc1cc(F)c(F)cc1F`, the IC50 in assay [1] and in assay [2] was more than 100 µM throughout. Besides, in assay [4], the result was Active. Also, the inhibition at 100 µM in assay [3] stood at 32.1%.
